PubChem BioAssay (NCI)
Values joined by “and” are separate entries in the source; they are usually repeats but may differ in a detail not shown here. Equal entries are not always repeated.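 1) Cells in 96-well plates. 2) Compound, 48 h, 5 concentrations. 3) Linear interpolation between surrounding doses. 4) Unreached endpoint = highest concentration. Here, GI50 denotes the concentration required for 50% inhibition of growth. TGI is the concentration that stops growth completely.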

Tests used:
Assay in all cases: NCI tumour cell line growth inhibition, 48 h
786-0 renal = system: 786-0 renal
A498 renal = system: A498 renal
A549 NSCLC = system: A549 NSCLC
ACHN renal = system: ACHN renal
BT-549 breast = system: BT-549 breast
CAKI-1 renal = system: CAKI-1 renal
CCRF-CEM leukemia = system: CCRF-CEM leukemia
COLO 205 colon = system: COLO 205 colon
DU-145 prostate = system: DU-145 prostate
EKVX NSCLC = system: EKVX NSCLC
HCC-2998 colon = system: HCC-2998 colon
HCT-116 colon = system: HCT-116 colon
HCT-15 colon = system: HCT-15 colon
HL-60(TB) leukemia = system: HL-60(TB) leukemia
HOP-62 NSCLC = system: HOP-62 NSCLC
HOP-92 NSCLC = system: HOP-92 NSCLC
HS 578T breast = system: HS 578T breast
HT29 colon = system: HT29 colon
IGROV1 ovarian = system: IGROV1 ovarian
K-562 leukemia = system: K-562 leukemia
KM12 colon = system: KM12 colon
LOX IMVI melanoma = system: LOX IMVI melanoma
M14 melanoma = system: M14 melanoma
MALME-3M melanoma = system: MALME-3M melanoma
MCF7 breast = system: MCF7 breast
MDA-MB-231 breast = system: MDA-MB-231 breast
MDA-MB-435 = system: MDA-MB-435
MOLT-4 leukemia = system: MOLT-4 leukemia
NCI-H226 lung = system: NCI-H226 lung
NCI-H23 lung = system: NCI-H23 lung
NCI-H460 lung = system: NCI-H460 lung
NCI-H522 lung = system: NCI-H522 lung
NCI/ADR-RES ovarian = system: NCI/ADR-RES ovarian
OVCAR-3 ovarian = system: OVCAR-3 ovarian
OVCAR-4 ovarian = system: OVCAR-4 ovarian
OVCAR-5 ovarian = system: OVCAR-5 ovarian
OVCAR-8 ovarian = system: OVCAR-8 ovarian
PC-3 prostate = system: PC-3 prostate
RPMI-8226 leukemia = system: RPMI-8226 leukemia
RXF 393 renal = system: RXF 393 renal
SF-268 CNS = system: SF-268 CNS
SF-295 CNS = system: SF-295 CNS
SF-539 CNS = system: SF-539 CNS
SK-MEL-2 melanoma = system: SK-MEL-2 melanoma
SK-MEL-28 melanoma = system: SK-MEL-28 melanoma
SK-MEL-5 melanoma = system: SK-MEL-5 melanoma
SK-OV-3 ovarian = system: SK-OV-3 ovarian
SN12C renal = system: SN12C renal
SNB-19 CNS = system: SNB-19 CNS
SNB-75 CNS = system: SNB-75 CNS
SR leukemia = system: SR leukemia
SW-620 colon = system: SW-620 colon
T-47D breast = system: T-47D breast
TK-10 renal = system: TK-10 renal
U251 CNS = system: U251 CNS
UACC-257 melanoma = system: UACC-257 melanoma
UACC-62 melanoma = system: UACC-62 melanoma
UO-31 renal = system: UO-31 renal

## C[C@H](NC(=O)c1c(N)nn2cccnc12)c1cc2cccc(C#Cc3cnn(C)c3)c2c(=O)n1-c1ccccc1
786-0 renal
  GI50: 3.97 µM and 3.56 µM
  TGI: > 10 µM and 16.9 µM
A498 renal
  GI50: 1.17 µM and 0.241 µM
  TGI: 8.24 µM and 1.79 µM
A549 NSCLC
  GI50: 8.92 µM and 4.98 µM
  TGI: > 10 µM and 30.2 µM
ACHN renal
  GI50: 3.39 µM and 2.92 µM
  TGI: > 10 µM and 18.8 µM
BT-549 breast
  GI50: 1.6 µM and 1.42 µM
  TGI: > 10 µM and 15.2 µM
CAKI-1 renal
  GI50: 3.81 µM
  TGI: > 10 µM
CCRF-CEM leukemia
  GI50: 0.588 µM and 0.357 µM
  TGI: > 100 µM
COLO 205 colon
  GI50: 4.41 µM and 1.8 µM
  TGI: > 10 µM and 5.23 µM
DU-145 prostate
  GI50: 8.71 µM and 7.69 µM
  TGI: > 100 µM
EKVX NSCLC
  GI50: 9.84 µM and 4.67 µM
  TGI: > 100 µM
HCC-2998 colon
  GI50: > 10 µM and 4.94 µM
  TGI: > 10 µM and 19.9 µM
HCT-116 colon
  GI50: 2.61 µM and 6.65 µM
  TGI: > 10 µM and 33.9 µM
HCT-15 colon
  GI50: 2.69 µM and 4.68 µM
  TGI: > 10 µM and 26.4 µM
HL-60(TB) leukemia
  GI50: 0.774 µM and 0.813 µM
  TGI: > 10 µM and 9.86 µM
HOP-62 NSCLC
  GI50: 8.58 µM
  TGI: > 10 µM
HOP-92 NSCLC
  GI50: 0.524 µM and 1.41 µM
  TGI: 7.35 µM and 20.4 µM
HS 578T breast
  GI50: 1.83 µM and 1.26 µM
  TGI: > 10 µM and 46.3 µM
HT29 colon
  GI50: 2.31 µM and 4 µM
  TGI: > 10 µM and 43.3 µM
IGROV1 ovarian
  GI50: 0.439 µM and 0.722 µM
  TGI: 2.89 µM and 5.47 µM
K-562 leukemia
  GI50: > 10 µM and 10.4 µM
  TGI: > 100 µM
KM12 colon
  GI50: 5.98 µM and 9.53 µM
  TGI: > 10 µM and 61.4 µM
LOX IMVI melanoma
  GI50: 3.44 µM
  TGI: > 10 µM and 40 µM
M14 melanoma
  GI50: > 10 µM and 11.8 µM
  TGI: > 10 µM and 30.9 µM
MALME-3M melanoma
  TGI: > 10 µM and 20 µM
MCF7 breast
  GI50: 1.1 µM and 1.01 µM
  TGI: > 10 µM and 87.7 µM
MDA-MB-231 breast
  GI50: 5.98 µM and 12.3 µM
  TGI: > 10 µM and 54.1 µM
MDA-MB-435
  GI50: 5.87 µM and 5.57 µM
  TGI: > 10 µM and 60.8 µM
MOLT-4 leukemia
  GI50: 2.17 µM and 1.96 µM
  TGI: > 10 µM and 6.55 µM
NCI-H226 lung
  GI50: > 10 µM and 11.8 µM
  TGI: > 10 µM and 32.8 µM
NCI-H23 lung
  GI50: 4.99 µM and 11 µM
  TGI: > 10 µM and 24.7 µM
NCI-H460 lung
  GI50: 3.8 µM and 5.2 µM
  TGI: > 10 µM and 23.9 µM
NCI-H522 lung
  GI50: 5.27 µM and 10.5 µM
  TGI: > 10 µM and 54.8 µM
NCI/ADR-RES ovarian
  GI50: 6.28 µM and 4.55 µM
  TGI: > 10 µM and 56 µM
OVCAR-3 ovarian
  GI50: 4.27 µM and 4.6 µM
  TGI: > 10 µM and 27.1 µM
OVCAR-4 ovarian
  GI50: 8.72 µM and 13.3 µM
  TGI: > 10 µM and 68.4 µM
OVCAR-5 ovarian
  GI50: 8.65 µM and 6.17 µM
  TGI: > 10 µM and 28.7 µM
OVCAR-8 ovarian
  GI50: > 10 µM and 12.6 µM
  TGI: > 100 µM
PC-3 prostate
  GI50: 1.6 µM and 1.98 µM
  TGI: > 100 µM
RPMI-8226 leukemia
  GI50: 3.23 µM and 3.84 µM
  TGI: > 10 µM and 31.4 µM
RXF 393 renal
  GI50: 2.02 µM and 1.58 µM
  TGI: > 10 µM and 9.57 µM
SF-268 CNS
  GI50: > 10 µM and 10.1 µM
  TGI: > 10 µM and 72.2 µM
SF-295 CNS
  GI50: 2.52 µM and 2.47 µM
  TGI: > 10 µM and 15.6 µM
SF-539 CNS
  GI50: 3.33 µM and 3.36 µM
  TGI: > 10 µM and 16.4 µM
SK-MEL-2 melanoma
  GI50: > 10 µM and 6.61 µM
  TGI: > 10 µM and 41.1 µM
SK-MEL-28 melanoma
  GI50: 3.08 µM and 3.9 µM
  TGI: > 10 µM and 38.6 µM
SK-MEL-5 melanoma
  GI50: 4.54 µM and 12.3 µM
  TGI: > 10 µM and 29.1 µM
SK-OV-3 ovarian
  GI50: 2.89 µM and 2.13 µM
  TGI: > 10 µM and 15.5 µM
SN12C renal
  GI50: 4.09 µM and 6.47 µM
  TGI: > 10 µM and 43.4 µM
SNB-19 CNS
  GI50: 6.27 µM and 10.4 µM
  TGI: > 100 µM
SNB-75 CNS
  GI50: 0.679 µM and 0.531 µM
  TGI: > 10 µM and 10.5 µM
SR leukemia
  GI50: 3.59 µM and 2.4 µM
  TGI: > 100 µM
SW-620 colon
  GI50: 3.14 µM and 11.9 µM
  TGI: > 10 µM and 61 µM
T-47D breast
  GI50: 0.211 µM and 0.224 µM
  TGI: 1.91 µM and 3.88 µM
TK-10 renal
  GI50: 2.07 µM and 1.38 µM
  TGI: > 10 µM and 12.1 µM
U251 CNS
  GI50: 7.5 µM and 8.22 µM
  TGI: > 10 µM and 48.5 µM
UACC-257 melanoma
  GI50: > 10 µM and 9.9 µM
  TGI: > 10 µM and 39.2 µM
UACC-62 melanoma
  GI50: 0.682 µM and 1.38 µM
  TGI: > 10 µM and 23.2 µM
UO-31 renal
  GI50: 0.666 µM and 0.981 µM
  TGI: > 10 µM and 13.8 µM
